# Tested on: 242566-281-R-J2-PDC complex spheroid viability
# Assay: Anticancer human tumor 242566-281-R-J2-PDC patient-derived pancreatic carcinoma cell line growth inhibition [CLK]
# Settings: for IC50: curve of first compound; for viability, T/C: stronger effect = lower value
# How it was run: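 Patient-derived tumor cells grown as complex spheroids with HUVEC endothelial cells and mesenchymal stem cells, treated with drug combinations. Concentrations descend in half-log steps from near clinical Cmax, or from 10 microM if Cmax unknown.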
# [1] = second compound 0.0316 µM, first compound 0.0316 µM
# [2] = second compound 0.0316 µM, first compound 0.1 µM
# [3] = second compound 0.0316 µM, first compound 0.316 µM
# [4] = second compound 0.0316 µM, first compound 1 µM
# [5] = second compound 0.0316 µM, first compound 3.16 µM
# [6] = second compound 0.0316 µM, first compound 10 µM
# [7] = second compound 0.1 µM, first compound 0.0316 µM
# [8] = second compound 0.1 µM, first compound 0.1 µM
# [9] = second compound 0.1 µM, first compound 0.316 µM
# [10] = second compound 0.1 µM, first compound 1 µM
# [11] = second compound 0.1 µM, first compound 3.16 µM
# [12] = second compound 0.1 µM, first compound 10 µM
# [13] = second compound 0.316 µM, first compound 0.0316 µM
# [14] = second compound 0.316 µM, first compound 0.1 µM
# [15] = second compound 0.316 µM, first compound 0.316 µM
# [16] = second compound 0.316 µM, first compound 1 µM
# [17] = second compound 0.316 µM, first compound 3.16 µM
# [18] = second compound 0.316 µM, first compound 10 µM
# [19] = second compound 1 µM, first compound 0.0316 µM
# [20] = second compound 1 µM, first compound 0.1 µM
# [21] = second compound 1 µM, first compound 0.316 µM
# [22] = second compound 1 µM, first compound 1 µM
# [23] = second compound 1 µM, first compound 3.16 µM
# [24] = second compound 1 µM, first compound 10 µM
# [25] = second compound 3.16 µM, first compound 0.0316 µM
# [26] = second compound 3.16 µM, first compound 0.1 µM
# [27] = second compound 3.16 µM, first compound 0.316 µM
# [28] = second compound 3.16 µM, first compound 1 µM
# [29] = second compound 3.16 µM, first compound 3.16 µM
# [30] = second compound 3.16 µM, first compound 10 µM
# [31] = second compound 10 µM, first compound 0.0316 µM
# [32] = second compound 10 µM, first compound 0.1 µM
# [33] = second compound 10 µM, first compound 0.316 µM
# [34] = second compound 10 µM, first compound 1 µM
# [35] = second compound 10 µM, first compound 3.16 µM
# [36] = second compound 10 µM, first compound 10 µM
# 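Also: spheroids exposed to compounds for 7 days before readout.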
# 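For viability, T/C in this document: 100% = DMSO vehicle control wells.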
structure (smiles),measurement,setting,value
COc1ccc([C@@H](O)c2cc(-c3ncnc4cc(N5CCOCC5)ccc34)c(F)cc2Cl)nn1 + CN1CCN(c2cc(C(=O)Nc3cc4cc(-c5cnn(C)c5)ccc4cn3)ccn2)CC1,IC50,second compound 0.0316 µM,> 10000 nM
same,IC50,second compound 0.1 µM,6170 nM
same,IC50,second compound 0.316 µM,< 31.6 nM
same,IC50,second compound 1 µM,< 31.6 nM
same,IC50,second compound 3.16 µM,< 31.6 nM
same,IC50,second compound 10 µM,< 31.6 nM
same,"viability, T/C",[1],106%
same,"viability, T/C",[2],104%
same,"viability, T/C",[3],90.4%
same,"viability, T/C",[4],87%
same,"viability, T/C",[5],70.3%
same,"viability, T/C",[6],50.1%
same,"viability, T/C",[7],97.9%
same,"viability, T/C",[8],85%
same,"viability, T/C",[9],80.1%
same,"viability, T/C",[10],73.6%
same,"viability, T/C",[11],67.5%
same,"viability, T/C",[12],38.8%
same,"viability, T/C",[13],30.2%
same,"viability, T/C",[14],22.3%
same,"viability, T/C",[15],26.9%
same,"viability, T/C",[16],20.3%
same,"viability, T/C",[17],25%
same,"viability, T/C",[18],11.8%
same,"viability, T/C",[19],5.5%
same,"viability, T/C",[20],4.93%
same,"viability, T/C",[21],4.05%
same,"viability, T/C",[22],4.46%
same,"viability, T/C",[23],4.87%
same,"viability, T/C",[24],5.56%
same,"viability, T/C",[25],6.52%
same,"viability, T/C",[26],6.92%
same,"viability, T/C",[27],5.95%
same,"viability, T/C",[28],6.56%
same,"viability, T/C",[29],7.75%
same,"viability, T/C",[30],6.44%
same,"viability, T/C",[31],1.12%
same,"viability, T/C",[32],1.29%
same,"viability, T/C",[33],1.09%
same,"viability, T/C",[34],1.69%
same,"viability, T/C",[35],2.12%
same,"viability, T/C",[36],1.23%
COc1cccc2c1C(=O)c1c(O)c3c(c(O)c1C2=O)CC(O)(C(=O)CO)CC3OC1CC(N)C(O)C(C)O1 (centres undefined) + CN1CCN(c2cc(C(=O)Nc3cc4cc(-c5cnn(C)c5)ccc4cn3)ccn2)CC1,IC50,second compound 0.0316 µM,55 nM
same,IC50,second compound 0.1 µM,50 nM
same,IC50,second compound 0.316 µM,< 31.6 nM
same,IC50,second compound 1 µM,< 31.6 nM
same,IC50,second compound 3.16 µM,< 31.6 nM
same,IC50,second compound 10 µM,< 31.6 nM
same,"viability, T/C",[1],67%
same,"viability, T/C",[2],31.7%
same,"viability, T/C",[3],8.7%
same,"viability, T/C",[4],4.2%
same,"viability, T/C",[5],1.44%
same,"viability, T/C",[6],2.53%
same,"viability, T/C",[7],66.5%
same,"viability, T/C",[8],25.1%
same,"viability, T/C",[9],5.6%
same,"viability, T/C",[10],2.26%
same,"viability, T/C",[11],1.22%
same,"viability, T/C",[12],1.37%
same,"viability, T/C",[13],26.1%
same,"viability, T/C",[14],7.56%
same,"viability, T/C",[15],1.25%
same,"viability, T/C",[16],1.1%
same,"viability, T/C",[17],1.58%
same,"viability, T/C",[18],1.58%
same,"viability, T/C",[19],4.67%
same,"viability, T/C",[20],4.62%
same,"viability, T/C",[21],2.83%
same,"viability, T/C",[22],3.28%
same,"viability, T/C",[23],2.48%
same,"viability, T/C",[24],2.27%
same,"viability, T/C",[25],6.53%
same,"viability, T/C",[26],5.78%
same,"viability, T/C",[27],5.19%
same,"viability, T/C",[28],3.29%
same,"viability, T/C",[29],2.58%
same,"viability, T/C",[30],1.42%
same,"viability, T/C",[31],1.13%
same,"viability, T/C",[32],1.22%
same,"viability, T/C",[33],0.74%
same,"viability, T/C",[34],0.66%
same,"viability, T/C",[35],0.57%
same,"viability, T/C",[36],0.17%
